Results published in PubChem BioAssay AID2060899 (Molecular Pharmacology Branch, DTP, NCI, 2025).

Tested on: 565726-208-R1-J5-PDC complex spheroids, growth inhibition
Assay: Anticancer human tumor 565726-208-R1-J5-PDC patient-derived pancreatic adenocarcinoma cell line growth inhibition [RAS]
Settings: for IC50: curve of first compound; for viability, T/C: stronger effect = lower value
Text: RAS pathway inhibitors in Combinations in Complex Spheroids
A high-throughput screen of multi-cell type tumor spheroids was designed to identify active combinations of RAS pathway inhibitors and targeted small molecules. Complex spheroids include a stromal component modeled by human endothelial cells (HUVEC) and fibroblasts modeled by human mesenchymal stem cells (MSCs). The concentration ranges selected for each drug and investigational agent were based upon clinically achievable concentrations if the clinical Cmax of the agent was known.
Compounds. The drugs and investigational agents: abemaciclib (NSC768073), cobimetinib (NSC768068), divarasib (GDC6063, NSC841802), docetaxel (NSC628503), GDC-1971 (RLY-1971, NSC841576), gemcitabine (NSC613327), inavolisib (NSC800729), ipatasertib (NSC767898), KB-0742 (NSC834161), MRTX-1133 (NSC836407), osimertinib (NSC779217), RMC-4630 (NSC839698), RMC-6236 (NSC851965), RMC-6291 (NSC852671), Ro-3306 (NSC812927), sapanisertib (NSC764658), SN-38 (NSC673596), staurosporine (NSC755774), SY5609 (NSC837396), and tovorafenib (DAY101, NSC766906), were obtained from the National Cancer Institute (NCI) Developmental Therapeutics Program Chemical Repository. The FDA-approved anticancer drug set is available from the NCI Developmental Therapeutics Program. […] The stock solutions were prepared in dimethyl sulfoxide (DMSO, Sigma-Aldrich, St. Louis, MO, cat. D2650) at 800-fold the tested concentration and stored at -70 degrees C prior to their use. All drugs and investigational agents were tested over a range starting from a high concentration at or near the clinical Cmax and decreasing in half-log increments. If the clinical Cmax for an agent had not been determined, the highest concentration tested was 10 microM.
Cell Culture. All cells were maintained in an incubator at 37 degrees C and 5% CO2 with 95% humidity. The PDC lines were cultured according to standard operating procedures established by the NCI PDMR. All PDCs were thawed and cultured in Matrigel-coated flasks prepared with a working solution of 1X Ham's F-12 nutrient mix, without supplementation (Invitrogen, Waltham, MA, cat. 11765054), 100 U/mL penicillin-streptomycin (Invitrogen, cat. 15140122), and 2.5% Matrigel (Corning Inc., Corning, NY, cat. 354248) for the first three passages. The 362531-283-R-J2-PDC and 782815-120-R-J1-PDC lines were cultured in 6C/Colon 1B media, which includes advanced DMEM/F-12 (Thermo Fisher Scientific, cat. 12634028), 10 mM HEPES (Thermo Fisher Scientific, cat. 15630080), 1X GlutaMAX supplement (Thermo Fisher Scientific, cat. 35050061), 0.1 mg/mL primocin (InvivoGen, San Diego, CA, cat. ant-pm-2), 10% defined fetal bovine serum, heat inactivated (HyClone Laboratories Inc., Logan, UT, cat. SH30070.03HI), 50% L-WRN conditioned media (ATCC, cat. CRL-3276), 1.25 mM N-Acetyl-L-cysteine (Sigma-Aldrich, cat. A9165), 10 mM nicotinamide (Sigma-Aldrich, cat. N0636), 1X B-27 supplement (Thermo Fisher Scientific, cat. 17504044), 1X N-2 supplement (Thermo Fisher Scientific, cat. 17502048), 50 ng/mL human EGF (Thermo Fisher Scientific, cat. PHG0311), and 10 microM Y-27632 dihydrochloride (Tocris Bioscience, cat. 1254). The K12877-001-R-J1-PDC line was cultured in 6I media, which includes all 6C/Colon 1B media plus 10 ng/mL human FGF-10 (PeproTech, cat. 100-26), 1 ng/mL human FGF-2 (PeproTech, cat. 100-18B), 1 µM prostaglandin E2 (Tocris Bioscience, cat. 2296), […] hydrocortisone (Sigma-Aldrich, cat. H4001), and […] bovine insulin (Sigma-Aldrich, cat. I6634). The K86415-001-R-J1-PDC line was cultured in 6D media, which includes all 6C/Colon 1B media components minus the L-WRN conditioned media. The 485176-168-R4-J1-PDC was cultured in PANC media, which includes all 6C/Colon 1B media plus 100 ng/mL human FGF-10 (PeproTech, cat. 100-26), 500 nM SB-431542 (Selleckchem, cat. S1067), and 10 nM gastrin (Tocris Bioscience, cat. 3006). […]

[1] = second compound 0.0316 µM, first compound 0.0316 µM
[2] = second compound 0.0316 µM, first compound 0.1 µM
[3] = second compound 0.0316 µM, first compound 0.316 µM
[4] = second compound 0.0316 µM, first compound 1 µM
[5] = second compound 0.1 µM, first compound 0.0316 µM
[6] = second compound 0.1 µM, first compound 0.1 µM
[7] = second compound 0.1 µM, first compound 0.316 µM
[8] = second compound 0.1 µM, first compound 1 µM
[9] = second compound 0.316 µM, first compound 0.0316 µM
[10] = second compound 0.316 µM, first compound 0.1 µM
[11] = second compound 0.316 µM, first compound 0.316 µM
[12] = second compound 0.316 µM, first compound 1 µM
[13] = second compound 1 µM, first compound 0.0316 µM
[14] = second compound 1 µM, first compound 0.1 µM
[15] = second compound 1 µM, first compound 0.316 µM
[16] = second compound 1 µM, first compound 1 µM
[17] = second compound 3.16 µM, first compound 0.0316 µM
[18] = second compound 3.16 µM, first compound 0.1 µM
[19] = second compound 3.16 µM, first compound 0.316 µM
[20] = second compound 3.16 µM, first compound 1 µM
[21] = second compound 10 µM, first compound 0.0316 µM
[22] = second compound 10 µM, first compound 0.1 µM
[23] = second compound 10 µM, first compound 0.316 µM
[24] = second compound 10 µM, first compound 1 µM
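Note: spheroids exposed to compounds for seven days before readout.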
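Throughout, for viability, T/C: 100% = DMSO vehicle control viability.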

C[C@@H](NC(=O)c1ncnc(N)c1Cl)c1ncc(C(=O)Nc2cc(C(F)(F)F)c(Cl)cn2)s1 + C#Cc1c(F)ccc2cc(O)cc(-c3ncc4c(N5CC6CCC(C5)N6)nc(OCC56CCCN5CC(F)C6)nc4c3F)c12
IC50 (second compound 0.0316 µM): > 10000 nM | IC50 (second compound 0.1 µM): > 10000 nM | IC50 (second compound 0.316 µM): > 10000 nM | IC50 (second compound 1 µM): > 10000 nM | IC50 (second compound 3.16 µM): > 10000 nM | IC50 (second compound 10 µM): > 10000 nM | viability, T/C [1]: 114% | viability, T/C [2]: 167% | viability, T/C [3]: 121% | viability, T/C [4]: 102% | viability, T/C (second compound 0.0316 µM, first compound 3.16 µM): 135% | viability, T/C (second compound 0.0316 µM, first compound 10 µM): 129% | viability, T/C [5]: 122% | viability, T/C [6]: 166% | viability, T/C [7]: 107% | viability, T/C [8]: 108% | viability, T/C (second compound 0.1 µM, first compound 3.16 µM): 116% | viability, T/C (second compound 0.1 µM, first compound 10 µM): 127% | viability, T/C [9]: 150% | viability, T/C [10]: 147% | viability, T/C [11]: 94.9% | viability, T/C [12]: 110% | viability, T/C (second compound 0.316 µM, first compound 3.16 µM): 95.8% | viability, T/C (second compound 0.316 µM, first compound 10 µM): 112% | viability, T/C [13]: 134% | viability, T/C [14]: 135% | viability, T/C [15]: 92.8% | viability, T/C [16]: 89.6% | viability, T/C (second compound 1 µM, first compound 3.16 µM): 107% | viability, T/C (second compound 1 µM, first compound 10 µM): 105% | viability, T/C [17]: 110% | viability, T/C [18]: 123% | viability, T/C [19]: 72.8% | viability, T/C [20]: 68.3% | viability, T/C (second compound 3.16 µM, first compound 3.16 µM): 65.4% | viability, T/C (second compound 3.16 µM, first compound 10 µM): 102% | viability, T/C [21]: 100% | viability, T/C [22]: 102% | viability, T/C [23]: 68.4% | viability, T/C [24]: 64.8% | viability, T/C (second compound 10 µM, first compound 3.16 µM): 72.2% | viability, T/C (second compound 10 µM, first compound 10 µM): 72.8%

O=C(c1ccc(F)c(F)c1Nc1ccc(I)cc1F)N1CC(O)([C@@H]2CCCCN2)C1 + C#Cc1c(F)ccc2cc(O)cc(-c3ncc4c(N5CC6CCC(C5)N6)nc(OCC56CCCN5CC(F)C6)nc4c3F)c12
IC50 (second compound 0.0316 µM): 593 nM | IC50 (second compound 0.1 µM): > 1000 nM | IC50 (second compound 0.316 µM): 95 nM | IC50 (second compound 1 µM): 76.8 nM | IC50 (second compound 3.16 µM): 83.4 nM | IC50 (second compound 10 µM): 26.3 nM | viability, T/C (second compound 0.0316 µM, first compound 0.00316 µM): 118% | viability, T/C (second compound 0.0316 µM, first compound 0.01 µM): 131% | viability, T/C [1]: 74.8% | viability, T/C [2]: 76.5% | viability, T/C [3]: 78.3% | viability, T/C [4]: 33.3% | viability, T/C (second compound 0.1 µM, first compound 0.00316 µM): 116% | viability, T/C (second compound 0.1 µM, first compound 0.01 µM): 138% | viability, T/C [5]: 69.1% | viability, T/C [6]: 62.3% | viability, T/C [7]: 63.6% | viability, T/C [8]: 34.8% | viability, T/C (second compound 0.316 µM, first compound 0.00316 µM): 117% | viability, T/C (second compound 0.316 µM, first compound 0.01 µM): 118% | viability, T/C [9]: 67.3% | viability, T/C [10]: 53.9% | viability, T/C [11]: 62.7% | viability, T/C [12]: 31% | viability, T/C (second compound 1 µM, first compound 0.00316 µM): 133% | viability, T/C (second compound 1 µM, first compound 0.01 µM): 103% | viability, T/C [13]: 62.8% | viability, T/C [14]: 43% | viability, T/C [15]: 58% | viability, T/C [16]: 28.8% | viability, T/C (second compound 3.16 µM, first compound 0.00316 µM): 109% | viability, T/C (second compound 3.16 µM, first compound 0.01 µM): 91.7% | viability, T/C [17]: 65.6% | viability, T/C [18]: 38.8% | viability, T/C [19]: 43.7% | viability, T/C [20]: 17.8% | viability, T/C (second compound 10 µM, first compound 0.00316 µM): 88.1% | viability, T/C (second compound 10 µM, first compound 0.01 µM): 63% | viability, T/C [21]: 39% | viability, T/C [22]: 38.9% | viability, T/C [23]: 22.1% | viability, T/C [24]: 5.94%
